{"source": "patent US9833497B2", "about": "“Human originated EGF domain proteins and use of the same” (CHENGDU SOURCEBIO LIMITED-LIABILITY COMPANY, priority 2013, dated 2017)", "assay_type_in_all_cases": "cell-based", "key": {"Serratia marcescens": {"system": "Serratia marcescens", "assay": "MIC against Gram-negative bacteria: Serratia marcescens", "conditions": "5×10^5 CFU/mL; for MIC against S. marcescens: Serratia marcescens", "outline": "(§1)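 Purified recombinant human EGF domain proteins are tested by broth dilution in LB against a 5×10^5 CFU/mL inoculum, with two-fold serial dilutions run in triplicate. Plates are incubated at 37° C with shaking, and the MIC is read as the lowest protein concentration without growth.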"}, "E. coli BL21": {"system": "E. coli BL21", "assay": "MIC against Gram-negative bacteria: E. coli BL21", "conditions": "5×10^5 CFU/mL", "outline": "as §1"}, "Pseudomonas aeruginosa": {"system": "Pseudomonas aeruginosa", "assay": "MIC against Gram-negative bacteria: Pseudomonas aeruginosa", "conditions": "5×10^5 CFU/mL; for MIC against P. aeruginosa: Pseudomonas aeruginosa", "outline": "as §1"}, "Enterobacter cloacae": {"system": "Enterobacter cloacae", "assay": "MIC against Gram-negative bacteria: Enterobacter cloacae", "conditions": "5×10^5 CFU/mL; for MIC against E. cloacae: Enterobacter cloacae", "outline": "as §1"}, "Moraxella catarrhalis": {"system": "Moraxella catarrhalis", "assay": "MIC against Gram-negative bacteria: Moraxella catarrhalis", "conditions": "5×10^5 CFU/mL; for MIC against M. catarrhalis: Moraxella catarrhalis", "outline": "as §1"}, "Proteus vulgaris": {"system": "Proteus vulgaris", "assay": "MIC against Gram-negative bacteria: Proteus vulgaris", "conditions": "5×10^5 CFU/mL; for MIC against P. vulgaris: Proteus vulgaris", "outline": "as §1"}, "Klebsiella pneumonia": {"system": "Klebsiella pneumonia", "assay": "MIC against Gram-negative bacteria: Klebsiella pneumonia", "conditions": "5×10^5 CFU/mL; for MIC against K. pneumonia: Klebsiella pneumonia", "outline": "as §1"}, "Proteus mirabilis": {"system": "Proteus mirabilis", "assay": "MIC against Gram-negative bacteria: Proteus mirabilis", "conditions": "5×10^5 CFU/mL; for MIC against P. mirabilis: Proteus mirabilis", "outline": "as §1"}, "Aeromonas hydrophila": {"system": "Aeromonas hydrophila", "assay": "MIC against Gram-negative bacteria: Aeromonas hydrophila", "conditions": "5×10^5 CFU/mL; for MIC against A. hydrophila: Aeromonas hydrophila", "outline": "as §1"}, "Citrobacter diversus": {"system": "Citrobacter diversus", "assay": "MIC against Gram-negative bacteria: Citrobacter diversus", "conditions": "5×10^5 CFU/mL; for MIC against C. diversus: Citrobacter diversus", "outline": "as §1"}, "E. coli DH5α": {"system": "E. coli DH5α", "assay": "Antibacterial activity: MIC and growth curve against E. coli DH5α in 96-well plate", "conditions": "minimal inhibitory concentration against E. coli DH5α; 96-well plate, 5×10^5 CFU/mL, 37° C., judged after 8 h", "outline": "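Log-phase bacteria (OD600 ~0.5) resuspended in LB at 5×10^5 CFU/mL, exposed to recombinant protein at 50, 25, 12.5 μg/mL final in triplicate, 37 °C shaking at 175 rpm. OD600 read every 30 min; MIC is lowest concentration showing no growth.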"}, "[1]": {"conditions": "E. coli BL21, 10 h cultivation at 37° C."}}}
{"substance": "PRT1450 (VPSNCDCLNGGTCVSNKYFSNIHWCNCPKKFGGQHCE; listed as Homo sapiens)", "values": [{"measurement": "MIC against S. marcescens", "setting": "Serratia marcescens; 10 h cultivation at 37° C.", "result": 25, "unit": "µg/mL"}, {"measurement": "MIC against E. coli BL21", "setting": "E. coli BL21; [1]", "result": 25, "unit": "µg/mL"}, {"measurement": "MIC against P. aeruginosa", "setting": "Pseudomonas aeruginosa; 10 h cultivation at 37° C.", "result": 50, "unit": "µg/mL"}, {"measurement": "MIC against E. cloacae", "setting": "Enterobacter cloacae; 10 h cultivation at 37° C.", "result": 25, "unit": "µg/mL"}, {"measurement": "MIC against M. catarrhalis", "setting": "Moraxella catarrhalis; 10 h cultivation at 37° C.", "result": 12.5, "unit": "µg/mL"}, {"measurement": "MIC against P. vulgaris", "setting": "Proteus vulgaris; 10 h cultivation at 37° C.", "result": 12.5, "unit": "µg/mL"}, {"measurement": "MIC against K. pneumonia", "setting": "Klebsiella pneumonia; 10 h cultivation at 37° C.", "result": 12.5, "unit": "µg/mL"}, {"measurement": "MIC against P. mirabilis", "setting": "Proteus mirabilis; 10 h cultivation at 37° C.", "result": 25, "unit": "µg/mL"}, {"measurement": "MIC against A. hydrophila", "setting": "Aeromonas hydrophila; 10 h cultivation at 37° C.", "result": 50, "unit": "µg/mL"}, {"measurement": "MIC against C. diversus", "setting": "Citrobacter diversus; 10 h cultivation at 37° C.", "result": 25, "unit": "µg/mL"}, {"measurement": "MIC", "setting": "E. coli DH5α", "result": 12.5, "unit": "µg/mL"}]}
{"substance": "PRT691 (DINECDEAEAASPLCVNARCLNTDGSFRCICRPGFAPTHQPHHCA; listed as Homo sapiens)", "values": [{"measurement": "MIC S. marcescens", "setting": "Serratia marcescens; 96-well plate, 37° C., 10 h", "result": 12.5, "unit": "µg/mL"}, {"measurement": "MIC E. coli BL21", "setting": "E. coli BL21; 96-well plate, 37° C., 10 h", "result": 50, "unit": "µg/mL"}, {"measurement": "MIC P. aeruginosa", "setting": "Pseudomonas aeruginosa; 96-well plate, 37° C., 10 h", "result": 12.5, "unit": "µg/mL"}, {"measurement": "MIC E. cloacae", "setting": "Enterobacter cloacae; 96-well plate, 37° C., 10 h", "result": 25, "unit": "µg/mL"}, {"measurement": "MIC M. catarrhalis", "setting": "Moraxella catarrhalis; 96-well plate, 37° C., 10 h", "result": 12.5, "unit": "µg/mL"}, {"measurement": "MIC P. vulgaris", "setting": "Proteus vulgaris; 96-well plate, 37° C., 10 h", "result": 50, "unit": "µg/mL"}, {"measurement": "MIC K. pneumonia", "setting": "Klebsiella pneumonia; 96-well plate, 37° C., 10 h", "result": 50, "unit": "µg/mL"}, {"measurement": "MIC P. mirabilis", "setting": "Proteus mirabilis; 96-well plate, 37° C., 10 h", "result": 25, "unit": "µg/mL"}, {"measurement": "MIC A. hydrophila", "setting": "Aeromonas hydrophila; 96-well plate, 37° C., 10 h", "result": 12.5, "unit": "µg/mL"}, {"measurement": "MIC C. diversus", "setting": "Citrobacter diversus; 96-well plate, 37° C., 10 h", "result": 50, "unit": "µg/mL"}, {"measurement": "MIC", "setting": "E. coli DH5α", "result": 25, "unit": "µg/mL"}]}
{"substance": "PRT1399 (ARVQCPDQCSGHGTYLPDTGLCSCDPNWMGPDCS; listed as Homo sapiens)", "values": [{"measurement": "MIC against S. marcescens", "setting": "Serratia marcescens; 10 h cultivation at 37° C.", "result": 25, "unit": "µg/mL"}, {"measurement": "MIC against E. coli BL21", "setting": "E. coli BL21; [1]", "result": 12.5, "unit": "µg/mL"}, {"measurement": "MIC against P. aeruginosa", "setting": "Pseudomonas aeruginosa; 10 h cultivation at 37° C.", "result": 12.5, "unit": "µg/mL"}, {"measurement": "MIC against E. cloacae", "setting": "Enterobacter cloacae; 10 h cultivation at 37° C.", "result": 25, "unit": "µg/mL"}, {"measurement": "MIC against M. catarrhalis", "setting": "Moraxella catarrhalis; 10 h cultivation at 37° C.", "result": 12.5, "unit": "µg/mL"}, {"measurement": "MIC against P. vulgaris", "setting": "Proteus vulgaris; 10 h cultivation at 37° C.", "result": 12.5, "unit": "µg/mL"}, {"measurement": "MIC against K. pneumonia", "setting": "Klebsiella pneumonia; 10 h cultivation at 37° C.", "result": 12.5, "unit": "µg/mL"}, {"measurement": "MIC against P. mirabilis", "setting": "Proteus mirabilis; 10 h cultivation at 37° C.", "result": 25, "unit": "µg/mL"}, {"measurement": "MIC against A. hydrophila", "setting": "Aeromonas hydrophila; 10 h cultivation at 37° C.", "result": 12.5, "unit": "µg/mL"}, {"measurement": "MIC against C. diversus", "setting": "Citrobacter diversus; 10 h cultivation at 37° C.", "result": 25, "unit": "µg/mL"}, {"measurement": "MIC", "setting": "E. coli DH5α", "result": 12.5, "unit": "µg/mL"}]}
{"substance": "PRT1300 (VIDHCVPELNLCQHEAKCIPLDKGFSCECVPGYSGKLCE; listed as Homo sapiens)", "values": [{"measurement": "MIC against S. marcescens", "setting": "Serratia marcescens; 96-well plate, 37° C., 10 h", "result": 12.5, "unit": "µg/mL"}, {"measurement": "MIC against E. coli BL21", "setting": "E. coli BL21; E. coli BL21, 96-well plate, 37° C., 10 h", "result": 50, "unit": "µg/mL"}, {"measurement": "MIC against P. aeruginosa", "setting": "Pseudomonas aeruginosa; 96-well plate, 37° C., 10 h", "result": 25, "unit": "µg/mL"}, {"measurement": "MIC against E. cloacae", "setting": "Enterobacter cloacae; 96-well plate, 37° C., 10 h", "result": 25, "unit": "µg/mL"}, {"measurement": "MIC against M. catarrhalis", "setting": "Moraxella catarrhalis; 96-well plate, 37° C., 10 h", "result": 12.5, "unit": "µg/mL"}, {"measurement": "MIC against P. vulgaris", "setting": "Proteus vulgaris; 96-well plate, 37° C., 10 h", "result": 12.5, "unit": "µg/mL"}, {"measurement": "MIC against K. pneumonia", "setting": "Klebsiella pneumonia; 96-well plate, 37° C., 10 h", "result": 12.5, "unit": "µg/mL"}, {"measurement": "MIC against P. mirabilis", "setting": "Proteus mirabilis; 96-well plate, 37° C., 10 h", "result": 12.5, "unit": "µg/mL"}, {"measurement": "MIC against A. hydrophila", "setting": "Aeromonas hydrophila; 96-well plate, 37° C., 10 h", "result": 50, "unit": "µg/mL"}, {"measurement": "MIC against C. diversus", "setting": "Citrobacter diversus; 96-well plate, 37° C., 10 h", "result": 12.5, "unit": "µg/mL"}, {"measurement": "MIC", "setting": "E. coli DH5α", "result": 12.5, "unit": "µg/mL"}]}
{"substance": "PRT249 (EAICAKPCLNGGVCVRPDQCECAPGWGGKHCH; listed as Homo sapiens)", "values": [{"measurement": "MIC (μg/mL) S. marcescens", "setting": "Serratia marcescens; S. marcescens, 10 h cultivation at 37° C.", "result": 12.5, "unit": "µg/mL"}, {"measurement": "MIC (μg/mL) E. coli BL21", "setting": "E. coli BL21; [1]", "result": 12.5, "unit": "µg/mL"}, {"measurement": "MIC (μg/mL) P. aeruginosa", "setting": "Pseudomonas aeruginosa; P. aeruginosa, 10 h cultivation at 37° C.", "result": 12.5, "unit": "µg/mL"}, {"measurement": "MIC (μg/mL) E. cloacae", "setting": "Enterobacter cloacae; E. cloacae, 10 h cultivation at 37° C.", "result": 25, "unit": "µg/mL"}, {"measurement": "MIC (μg/mL) M. catarrhalis", "setting": "Moraxella catarrhalis; M. catarrhalis, 10 h cultivation at 37° C.", "result": 12.5, "unit": "µg/mL"}, {"measurement": "MIC (μg/mL) P. vulgaris", "setting": "Proteus vulgaris; P. vulgaris, 10 h cultivation at 37° C.", "result": 12.5, "unit": "µg/mL"}, {"measurement": "MIC (μg/mL) K. pneumonia", "setting": "Klebsiella pneumonia; K. pneumonia, 10 h cultivation at 37° C.", "result": 12.5, "unit": "µg/mL"}, {"measurement": "MIC (μg/mL) P. mirabilis", "setting": "Proteus mirabilis; P. mirabilis, 10 h cultivation at 37° C.", "result": 12.5, "unit": "µg/mL"}, {"measurement": "MIC (μg/mL) A. hydrophila", "setting": "Aeromonas hydrophila; A. hydrophila, 10 h cultivation at 37° C.", "result": 12.5, "unit": "µg/mL"}, {"measurement": "MIC (μg/mL) C. diversus", "setting": "Citrobacter diversus; C. diversus, 10 h cultivation at 37° C.", "result": 25, "unit": "µg/mL"}, {"measurement": "MIC", "setting": "E. coli DH5α", "result": 25, "unit": "µg/mL"}]}
